According to ChEMBL document CHEMBL1151348, “Plant anticancer agents. X. Lignans from Juniperus phoenicea” (1980):
≈ marks a conversion by molar mass, not a printed value.

Tested on: KB
Test: Cytotoxicity against human KB cells
Type: functional
Settings: read-out: ED50 (the source's name)

**Q.** With `COc1cc([C@@H]2c3cc4c(c(OC)c3C[C@H]3COC(=O)[C@@H]32)OCO4)cc(OC)c1OC` as the molecule, how does the EC50 read?
**A.** Its EC50 is 0.026 µg/mL (≈ 0.0607 µM).
